Entries after “also recorded” stand apart in the source; their conditions may differ.
Experiments:
[1] = tested on: DISC1 knockdown AHP cells; test: BrdU incorporation in DISC1 knockdown progenitor cells; assay type: cell-based; conditions: SB-216763 5 μM for 16 hours, 10 μM BrdU for 2 hours
Procedure: Primary neural stem cells from E14 brains were infected with control or DISC1 shRNA lentiviruses. 48 hours after to transduction, cells were treated with vehicle or SB-216763 (5 μM) for 16 hours and then pulsed with 10 μM BrdU for 2 hours. Shown is percentage of GFP and BrdU double positive cells to total GFP positive cells (n=3, p<0.05). b. […] 1.5 μg of vector or WT-DISC1 was cotransfected with 0.5 μg control or DISC1 shRNA-2, 0.1 μg TCF reporter, and 10 ng pRL-TK vector into 293T cells. 48 hours after transfection, Wnt3a conditional medium with vehicle, SB-216763, or AR-A104418 was added for another 16 hours.
If DISC1 functions to inhibit GSK3β activity, the negative effects of DISC1 silencing on proliferation should be alleviated by GSK3β loss-of-function. We examined the consequence of treating DISC1 knockdown AHP cells with SB-216763, a specific chemical inhibitor of GSK3β. […] These experiments further support a role of DISC1 in controlling cell proliferation via modulation of GSK3β.

[2] = tested on: neural progenitors in embryonic mouse brains; test: In utero electroporation of shRNA into E13 embryonic mouse brains; assay type: in vivo
Excerpt: • Mice. Swiss Webster pregnant female mice were purchased from Taconic (Hudson, N.Y.). • Cell Culture. AHPs were kindly provided by Dr. Gage (Lie, D. C. et al. Wnt signaling to regulates adult hippocampal neurogenesis. Nature 437, 1370-5 (2005)) and cultured under conditions described previously (Palmer, T. D., Takahashi, J. & Gage, F. H. The adult rat hippocampus contains primordial neural stem cells. Mol Cell Neurosci 8, 389-404 (1997)). Primary neural progenitors were isolated from E14 mouse embryos and cultured as described previously (Sanada, K. & Tsai, L. H. G protein betagamma subunits and AGS3 control spindle orientation and asymmetric cell fate of cerebral cortical progenitors. Cell 122, 119-31 (2005)). N2a and 293T cells were cultured in DMEM medium containing 10% FBS, L-glutamine, and penicillin/streptomycin. Wnt3a expressing L cells and untransfected L cells were obtained from ATCC (Manassas, Va.). Wnt3a conditional medium was produced according to the ATCC protocol. To induce AHP differentiation, FGF2 was removed from the culture medium and 1 μM retinoic acid/1% FBS was added to the medium for 4 days. • Reagents. Recombinant Wnt3a protein was obtained from Chemicon (Rosemont, Ill.). FGF2 was obtained from PeproTech (Rocky Hill, N.J.). Recombinant GST-GSK3β was obtained from Active Motif (Carlsbad, Calif.). Recombinant GST-β-catenin and GST-axin were obtained from Millipore (Billerica, Mass.). The GSK313 inhibitor, SB-216763, AR-A104418 and His-GSK3β, were obtained from Sigma-Aldrich (Sigma-Aldrich, St. Louis, Mo.). L803-MTS was obtained from Calbiochem (San Diego, Calif.). GST-AKT1 was obtained from Cell Signaling (Beverly, Mass.). GST-CASK-1 (CASK fragment from 316-415aa), GST-CASK-2 (CASK fragment from 777-974aa), and GST-p25 proteins were kindly provided by Dr. B. A. Samuels. Mouse DISC1 peptidel (40-78aa: GYMRSTAGSG IGFLSPAVGMPHPSSAG LTGQQSQHSQS; SEQ ID NO: 1) and Mouse DISC1 peptide 2 (195-238aa, […] GERGEAEGCLPSREAE; SEQ ID NO: 2) were synthesized by Chi Scientific (Maynard, Mass.). • Antibodies. The primary antibodies used in this study were the following: rabbit anti-DISC1 C-terminal antibody, mouse and rabbit anti-GFP antibodies (Invitrogen, Carlsbad, Calif.); affinity purified rabbit anti-DISC1 antibody (Novus, Littleton, Colo.) for immunohistochemistry; mouse anti-FLAG and mouse anti-Actin antibody; mouse anti-GSK3β antibody, mouse anti-β-catenin antibody, mouse anti-pY216 GSK3β antibody, and mouse anti-nestin antibody (BD Biosciences, San Diego, Calif.); rabbit anti-[…] β-catenin antibody, rabbit anti-pS9 GSK3β antibody, and mouse anti-cyclin to D1 antibody (Cell Signaling); mouse anti-Dv12 antibody, mouse anti-HA antibody, mouse anti-GST antibody, mouse anti-ubiquitin antibody, and rabbit anti-β-catenin antibody (Santa Cruz, Santa Cruz, Calif.); mouse Tuj-1 antibody (BABCO, Harrisburg, Pa.); mouse anti-BrdU antibody (DakoCytomation, Glostrup, Denmark); guinea pig anti-doublecortin antibody (Chemicon, Rosemont, Ill.); chicken anti-GFP antibody (Ayes Labs, Tigard, Oreg.); rabbit anti-pS10 Histone H3 antibody (Upstate, Lake Placid, N.Y.). • Constructs. The sequences for shRNAs targeting DISC1 are as follows: control shRNA: 5′-CGGCTGAAACAAGAGTTGG-3′ (SEQ ID NO:3); DISC1 shRNA-1: 5′-GGCAAACACTGTGA AGT GC-3′ (SEQ ID NO:4); DISC1 shRNA-2: 5′-[…]-3′ (SEQ ID NO:5)(Kamiya A. et al. A schizophrenia-associated mutation of DISC1 perturbs cerebral cortex development. Nat. Cell Biol 7, 1167-78 (2005)). DISC1 shRNA-1 recognizes both rat and mouse DISC1. […]

AHPs = test: Immunoblot of β-catenin and cyclin D1 in transduced AHPs; assay type: cell-based
Excerpt: • Mice. Swiss Webster pregnant female mice were purchased from Taconic (Hudson, N.Y.). • Cell Culture. AHPs were kindly provided by Dr. Gage (Lie, D. C. et al. Wnt signaling to regulates adult hippocampal neurogenesis. Nature 437, 1370-5 (2005)) and cultured under conditions described previously (Palmer, T. D., Takahashi, J. & Gage, F. H. The adult rat hippocampus contains primordial neural stem cells. Mol Cell Neurosci 8, 389-404 (1997)). Primary neural progenitors were isolated from E14 mouse embryos and cultured as described previously (Sanada, K. & Tsai, L. H. G protein betagamma subunits and AGS3 control spindle orientation and asymmetric cell fate of cerebral cortical progenitors. Cell 122, 119-31 (2005)). N2a and 293T cells were cultured in DMEM medium containing 10% FBS, L-glutamine, and penicillin/streptomycin. Wnt3a expressing L cells and untransfected L cells were obtained from ATCC (Manassas, Va.). Wnt3a conditional medium was produced according to the ATCC protocol. To induce AHP differentiation, FGF2 was removed from the culture medium and 1 μM retinoic acid/1% FBS was added to the medium for 4 days. • Reagents. Recombinant Wnt3a protein was obtained from Chemicon (Rosemont, Ill.). FGF2 was obtained from PeproTech (Rocky Hill, N.J.). Recombinant GST-GSK3β was obtained from Active Motif (Carlsbad, Calif.). Recombinant GST-β-catenin and GST-axin were obtained from Millipore (Billerica, Mass.). The GSK313 inhibitor, SB-216763, AR-A104418 and His-GSK3β, were obtained from Sigma-Aldrich (Sigma-Aldrich, St. Louis, Mo.). L803-MTS was obtained from Calbiochem (San Diego, Calif.). GST-AKT1 was obtained from Cell Signaling (Beverly, Mass.). GST-CASK-1 (CASK fragment from 316-415aa), GST-CASK-2 (CASK fragment from 777-974aa), and GST-p25 proteins were kindly provided by Dr. B. A. Samuels. Mouse DISC1 peptidel (40-78aa: GYMRSTAGSG IGFLSPAVGMPHPSSAG LTGQQSQHSQS; SEQ ID NO: 1) and Mouse DISC1 peptide 2 (195-238aa, […] GERGEAEGCLPSREAE; SEQ ID NO: 2) were synthesized by Chi Scientific (Maynard, Mass.). • Antibodies. […]

[3] = tested on: DISC1 shRNA infected mice; test: Elevated plus-maze; assay type: in vivo, mouse; conditions: lentivirus in adult dentate gyrus
Procedure: Alterations in neurogenesis are implicated in the development of depression and other abnormal behaviors. To examine the behavioral consequences of disrupting the DICS1/GSK3β pathway, we silenced DISC1 expression in the adult dentate gyms and evaluated behavioral consequences. Four weeks after the injection of control or DISC1 shRNA-1 lentivirus, mice were treated with vehicle or SB-216763 (2 mg/kg i.p.) every other day for 10 days. […] DISC1 shRNA injected mice traveled a greater distance and spent more time moving in a novel open field than control mice (FIG. 17A). These behaviors were normalized by SB-216763 treatment. We further tested whether DISC1 loss-of-function had consequences on depression-like behavior in the forced swim test. […] Importantly, swimming velocity was unchanged. […] Thus, increased GSK3β activity caused by DISC1 loss-of-function is associated with schizophrenia- and depression-like behaviors.

[4] = electroporated at E13, analyzed 3 days later

Question: For `Cn1cc(C2=C(c3ccc(Cl)cc3Cl)C(=O)NC2=O)c2ccccc21` [SB-216763], which “cell proliferation by BrdU incorporation in DISC1 knockdown cells” value [1] is on record?
Answer: Its value is “restored the cell proliferation impaired by DISC1 knockdown; also recorded: can rescue DISC-1 knockdown-induced proliferation defects”.

Question: For “DISC1 shRNA-1: shRNA targeting rat and mouse DISC1, SEQ ID NO:4, in pLentiLox 3.7 vector (GGCAAACACTGTGAAGTGC)”, which BrdU labeling ([2]; BrdU 2 hours prior to collection) is on record?
Answer: The BrdU labeling was 18.2±2.2%.

Question: And the “cell cycle exit index” value ([2]; electroporated E13, BrdU at E15, collected E16)?
Answer: Its value is 53.2±6.1%.

Question: And the “GFP+Dcx+ cells” value ([2]; electroporated E13, sacrificed E16, SVZ)?
Answer: The value was 36.7±4.2%.

Question: What about the “GFP positive cells in the VZ/SVZ” value [2, 4] of the same molecule?
Answer: Its value is 13%.

Question: And the “GFP positive cells in the cortical plate” value [2, 4]?
Answer: The value was 59.6%.

Question: And the mitotic index ([2]; pH3, electroporated E13, sacrificed E15)?
Answer: Its mitotic index is 3.8±0.8%.

Question: And the “reduction of Cyclin D1 levels” value (AHPs)?
Answer: Its value is 50%.

Question: What about the β-catenin levels (AHPs) of the same molecule?
Answer: The β-catenin levels was 35 % to control.

Question: And the “anxiety in elevated plus-maze” value [3]?
Answer: Its value is “did not display increased anxiety”.
